{
  "source": "patent EP1818060A1",
  "about": "“Cosmetic composition comprising Fadogia ancylantha extracts” (ARTSANA S.p.A., priority 2005, dated 2007)",
  "assay": "Antioxidant activity, DPPH test",
  "assay_type": "biochemical",
  "settings": "second SC50 column; control; in brackets tolerated range 95%",
  "protocol": "The antioxidant activity of the dry extract A, obtained as above illustrated in Example 1, of Fadogia ancylantha was determined using the 2,2 diphenyl-1-picrilhydrazilic stable radical (DPPH°) and α-tocopherol as a control, according to the protocol disclosed by Aquino R. et al. in \"Phenolic constituents and antioxidant activity of an extract of Anthurium versicolor leaves\", J. of Natural products 64, 1019-1023.\nThe decrease of absorbance measured according to the above protocol is directly correlated with the free-radical scavenger ability of the antioxidant under test.\nThe DPPH° percentage remaining at the steady state (%DPPH°RIM) is calculated by applying the following formula %DPPH°RIM = (DPPH)° × T1 /(DPPH°) × To × 100 [formula] where T1 is the time to reach the steady state.\nThe amount of the antioxidant needed to reduce the radical initial concentration to a half (SC50, expressed as µg of the extract/ml) was calculated from the percentage of DPPH°RIM with respect to the antioxidant concentrations used.\nAll tests were carried out in triplicate and repeated for three times.",
  "note": "Marks after values point to notes of the source that are not given here.",
  "data": [
    {"smiles": "Cc1c(C)c2c(c(C)c1O)CC[C@@](C)(CCC[C@H](C)CCC[C@H](C)CCCC(C)C)O2", "note": "[α-tocopherol]", "values": [
      {"measurement": "DPPH test SC50", "value": "10.1 (8.8-11.4)^c µg/ml of phenols"}
    ]}
  ]
}
